The record followed here is patent US9840478B2 (MERCK SHARP & DOHME CORP., priority 2013, dated 2017).

The test system of the experiment is HIV-1 (H9IIIB strain). Description: Cell-based HIV infection assay using a reporter (Cell-Based), MT4-GFP cells. The conditions noted are these: Human immunodeficiency virus 1, MT4-GFP cells infected with HIV-1 H9IIIB; 50% normal human serum; mean of at least two independent experiments; read-out: Cell-based IP. Summed up:
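MT4-GFP cells (HIV LTR-driven GFP) infected 24 h with HIV-1 H9IIIB at low MOI, then washed and plated with compounds in RPMI + 50% normal human serum, 0.4% DMSO final. Green cells counted at 24 and 48 h; R0 = 48 h/24 h ratio, inhibition normalized to DMSO and triple-drug control; IC50 from 4-parameter fit.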
As for `O=C1COc2ccc(S(=O)(=O)N3CCNC[C@@H]3CCc3c(F)cncc3NC(=O)C[C@@H](c3ccc(F)cc3)c3cc(F)cc(F)c3)cc2N1` [Example 308, (3S)-3-(3,5-difluorophenyl)-N-[5-fluoro-4-(2-{(2S)-1-[(3-oxo-3,4-dihydro-2H-1,4-benzoxazin-6-yl)sulfonyl]piperazin-2-yl}ethyl)pyridin-3-yl]-3-(4-fluorophenyl)propanamide], the IC50 came out at 180 nM.

Regarding `CC(C)[C@H](c1ccc(Cl)cc1)[C@H](N)C(=O)Nc1cncc(F)c1CC[C@H]1CNC[C@@H](C)N1S(=O)(=O)C1CC1` [Example 178, (βR)-4-chloro-N-(4-{2-[(2S,6R)-1-(cyclopropylsulfonyl)-6-methylpiperazin-2-yl]ethyl}-5-fluoropyridin-3-yl)-β-(1-methylethyl)-L-phenylalaninamide], the IC50 is 340 nM.

Consider `CC(=O)Nc1nc(S(=O)(=O)N2CCNC[C@@H]2CCc2c(F)cncc2NC(=O)C[C@@H](c2ccc(F)cc2)c2cc(F)cc(F)c2)c(C)s1` [Example 309, (3S)-N-(4-{2-[(2S)-1-{[2-(acetylamino)-5-methyl-1,3-thiazol-4-yl]sulfonyl}piperazin-2-yl]ethyl}-5-fluoropyridin-3-yl)-3-(3,5-difluorophenyl)-3-(4-fluorophenyl)propanmide], for which the IC50 amounted to 140 nM.

With `O=C(C[C@@H](c1ccc(F)cc1)c1cc(F)cc(F)c1)Nc1cncc(F)c1CC[C@H]1CNCCN1C(=O)c1ccc(OC(F)(F)F)cc1` [Example 344, (3S)-3-(3,5-difluorophenyl)-3-(4-fluorophenyl)-N-(5-fluoro-4-{2-[(2S)-1-{[4-(trifluoromethoxy)phenyl]carbonyl}piperazin-2-yl]ethyl}pyridin-3-yl)propanamide], the IC50 was determined as 1800 nM.

Turning to `COC(=O)N[C@H](C(=O)Nc1cncc(F)c1CC[C@H]1CNCCN1S(=O)(=O)C1CC1)[C@@H](c1ccc(F)cc1)c1cc(F)cc(F)c1` [Example 50, (βS)-N-(4-{2-[(2S)-1-(cyclopropylsulfonyl)piperazin-2-yl]ethyl}-5-fluoropyridin-3-yl)-3,5-difluoro-β-(4-fluorophenyl)-Nα-(methoxycarbonyl)-L-phenylalaninamide], the IC50 came to 21 nM.

Take `C[C@H]1CNC[C@H](CCc2c(F)cccc2NC(=O)[C@@H](N)[C@@H](c2ccc(F)cc2)c2cc(F)cc(F)c2)N1S(=O)(=O)c1ccc(OC(F)(F)F)cc1` [Example 214, (βS)-β-(3,5-difluorophenyl)-4-fluoro-N-(3-fluoro-2-{2-[(2S,6S)-6-methyl-1-{[4-(trifluoromethoxy)phenyl]sulfonyl}piperazin-2-yl]ethyl}phenyl)-L-phenylalaninamide]: the IC50 was 44 nM.

As to `C[C@@H]1CNC[C@H](CCc2c(F)cncc2NC(=O)[C@@H](N)[C@@H](c2ccc(F)cc2)c2cc(F)cc(F)c2)N1S(=O)(=O)C1CC1` [Example 15, (βS)—N-(4-{2-[(2S,6R)-1-(cyclopropylsulfonyl)-6-methylpiperazin-2-yl]ethyl}-5-fluoropyridin-3-yl)-β-(3,5-difluorophenyl)-4-fluoro-L-phenylalaninamide], the IC50 worked out at 18 nM.

As to `COC(=O)N[C@H](C(=O)Nc1cccc(F)c1CC[C@H]1CNC[C@H](C)N1S(=O)(=O)c1ccccc1)[C@@H](c1ccc(Cl)cc1)C1CCOCC1` [Example 132, (βR)-4-chloro-N-(3-fluoro-2-{2-[(2S,6S)-6-methyl-1-(phenylsulfonyl)piperazin-2-yl]ethyl}phenyl)-Nα-(methoxycarbonyl)-β-(tetrahydro-2H-pyran-4-yl)-L-phenylalaninamide], the IC50 came to 11 nM.

As for `COC(=O)N[C@H](C(=O)Nc1cccc(F)c1CC[C@H]1CNC[C@H](C)N1S(C)(=O)=O)[C@H](c1cccc(F)c1)c1cccc(Cl)c1` [Example 174, (βR)-3-chloro-N-(3-fluoro-2-{2-[(2S,6S)-6-methyl-1-(methylsulfonyl)piperazin-2-yl]ethyl}phenyl)-β-(3-fluorophenyl)-Nα-(methoxycarbonyl)-L-phenylalaninamide], the IC50 turned out to be 99 nM.
